From publication PMC12693182, “Synthesis and QSAR Studies of Claramine Derivatives, a New Class of Broad-Spectrum Antimicrobial Agents” (Molecules, 2025)
≈ marks a conversion by molar mass, not a printed value.

Key:
S. aureus 340 = experiment: MIC, broth microdilution; format: cell-based, Staphylococcus aureus; conditions: for MIC: Staphylococcus aureus, 340, 24 h; for MIC S. aureus 340: 24 h
Method: (§1) Antimicrobial activity of the compounds was studied by determination of minimal inhibitory concentrations (MIC) according to the NCCLS guidelines M7-A2 using the microbroth dilution methods. The bacteria strains were grown on trypticase soy agar (Becton Dickinson) at 37 °C for 24 h. Inocula were prepared in TCE (tryptone 0.1%, […], wt/vol) by ajusting the turbidity at 623 nm to obtain 1–3 10^5 CFU/mL.
(§2) Antimicrobial activities of the compounds were determined by using a broth microdilution method performed in sterile 96-well microplates. All compounds were solubilized in water at a concentration of 10 mM and were transferred to each microplate well in order to obtain a two-fold serial dilution in 100 µL of broth and 100 µL of inoculum containing 2–6 10^5 CFU of each bacterium were added to each well. Some wells were reserved for positive controls and inoculum viability.

P. aeruginosa 1051575 = experiment: MIC, broth microdilution; format: cell-based, Pseudomonas aeruginosa; conditions: for MIC: Pseudomonas aeruginosa, 1051575, 24 h; for MIC / MIC P. aeruginosa 1051575: 24 h
Method: as §1, §2

[1] = system: Chinese hamster Ovary cells (CHO-K1); experiment: Cytotoxicity assay (WST-1 / Neutral Red); format: cell-based; conditions: 24-h incubation; for IC50: Cricetulus griseus, 24 h
Method: The cytotoxic activities of compounds were assessed on Chinese hamster Ovary cells (CHO-K1) provided from ATCC-LGC Standards Sarl (Molsheim, France). Cells were maintained in Mc Coy’s 5A (CHO) medium supplemented with 10% bovine calf serum, 2 mM glutamine, and 100 U mL^−1/10 µg mL^−1 penicillin/streptomycin mixtures. For the cytotoxicity experiments, they were seeded in 96-well plates and incubated at 37 °C in humidified atmosphere containing 5% CO2 overnight, then concentrations of compounds were incorporated in triplicate cultures. After a 24-h incubation period at 37 °C, cells were submitted to three successive washes in phosphate buffer saline (PBS) and cell viability was evaluated by two different vital dyes: • i. A first set of cell cultures was incubated in PBS containing 10% WST-1 for 30 min at 37 °C, 5% CO2. Cell viability was evaluated by the assessment of WST-1 absorbance at 450 nm in a microplate spectrophotometer. • ii. A second set of cell cultures was placed into Neutral Red medium (50 μg mL^−1 Neutral Red in complete medium) and incubated for 3 h at 37 °C, 5% CO2. Then the Neutral Red medium was removed and the distaining solution (50% ethanol, 1% acetic acid, 49% distilled water; 50 µL per well) was added into the wells. The plates were shaken for 15–20 min at room temperature in the dark. Cell viability was evaluated by the assessment of absorbance at 540 nm in a microplate spectrophotometer.
Results were expressed as percentages of cell viability about the control (culture medium-only), which corresponded to 100% cell viability. Dose-response curves were calculated by non-linear regression analysis with TableCurve 2D software (V 5.0.1) (Systat Software Inc., San Jose, CA, USA). The Inhibitory Concentration 50% (IC50) was defined as the concentration of compounds that induced a 50% decrease of viable cells.

S. aureus ATCC 25923 = experiment: MIC, broth microdilution; format: cell-based, Staphylococcus aureus; conditions: ATCC strain; for MIC: Staphylococcus aureus, ATCC25923, 24 h
Method: as §1, §2

S. intermedius 1051997 = experiment: MIC, broth microdilution; format: cell-based, Staphylococcus intermedius; conditions: for MIC: Staphylococcus intermedius, 1051997, 24 h; for Therapeutic Ratio (TR): IC50 (CHO)/MIC, S. intermedius
Method: as §1, §2

E. faecalis ATCC29212 = experiment: MIC, broth microdilution; format: cell-based, Enterococccus faecalis; conditions: ATCC strain; for MIC: Enterococcus faecalis, ATCC29212, 24 h, read-out: MIC E. faecalis 29212; for MIC E. faecalis 29212: 24 h
Method: as §1, §2

E. coli 1956 = experiment: MIC, broth microdilution; format: cell-based, Escherichia coli; conditions: for MIC: Escherichia coli, 1956, 24 h; for MIC E. coli 1956: 24 h
Method: as §1, §2

E. coli ATCC 25922 = experiment: MIC, broth microdilution; format: cell-based, Escherichia coli; conditions: ATCC strain; for MIC: Escherichia coli, ATCC25922, 24 h; for MIC E. coli 25922: 24 h
Method: as §1, §2

P. aeruginosa ATCC 27853 = experiment: MIC, broth microdilution; format: cell-based, Pseudomonas aeruginosa; conditions: ATCC strain; for MIC: Pseudomonas aeruginosa, ATCC27853, 24 h; for MIC P. aeruginosa 27853: 24 h
Method: as §1, §2

Compound | MIC (S. aureus 340) [µg/mL] | MIC (P. aeruginosa 1051575) [µg/mL] | IC50 [1] [µg/mL] | MIC (S. aureus ATCC 25923) [µg/mL] | MIC (S. intermedius 1051997; 24 h) [µg/mL] | MIC (E. faecalis ATCC29212) [µg/mL] | MIC (E. coli 1956) [µg/mL] | MIC (E. coli ATCC 25922) [µg/mL] | MIC (P. aeruginosa ATCC 27853) [µg/mL] | MIC P. aeruginosa 1051575 (P. aeruginosa 1051575) [µg/mL] | also measured
CC(C)OC(=O)CCC(C)C1CCC2C3C(O)CC4CC(NCCN(CCN)CCN)CCC4(C)C3CC(O)C12C (centres unmarked) [Claramine B19] | 14 (≈ 24.2 µM) | 58 (≈ 100 µM) | 81 (≈ 140 µM) | – | – | – | – | – | – | – | –
COC(=O)CCC(C)C1CCC2C3C(O)CC4CC(NCCCNCCCCNCCCN)CCC4(C)C3CCC12C (centres unmarked) [Claramine C01] | 4 (≈ 6.77 µM) | 7 (≈ 11.8 µM) | 24 (≈ 40.6 µM) | 4 (≈ 6.77 µM) | 2 (≈ 3.38 µM) | 15 (≈ 25.4 µM) | 60 (≈ 102 µM) | 30 (≈ 50.8 µM) | 30 (≈ 50.8 µM) | – | –
COC(=O)CCC(C)C1CCC2C3C(O)CC4CC(NCCCNCCCNCCCN)CCC4(C)C3CCC12C (centres unmarked) [Claramine C02] | 4 (≈ 6.93 µM) | 7 (≈ 12.1 µM) | 22 (≈ 38.1 µM) | 4 (≈ 6.93 µM) | 2 (≈ 3.47 µM) | 15 (≈ 26 µM) | – | – | 29 (≈ 50.3 µM) | – | MIC E. coli 25922 (E. coli ATCC 25922): 15 µg/mL (≈ 26 µM)
COC(=O)CCC(C)C1CCC2C3C(O)CC4CC(NCCCNCCCN)CCC4(C)C3CCC12C (centres unmarked) [Claramine C04] | 7 (≈ 13.5 µM) | 26 (≈ 50 µM) | 68 (≈ 131 µM) | – | – | – | – | – | – | – | –
CC(C)OC(=O)CCC(C)C1CCC2C3C(O)CC4CC(NCCCNCCCNCCCN)CCC4(C)C3CCC12C (centres unmarked) [Claramine C17] | 2 (≈ 3.31 µM) | – | > 60 | 4 (≈ 6.61 µM) | 0.8 (≈ 1.32 µM) | 8 (≈ 13.2 µM) | 10 (≈ 16.5 µM) | 16 (≈ 26.4 µM) | 16 (≈ 26.4 µM) | – | Therapeutic Ratio (TR) (S. intermedius 1051997): 65–114; Therapeutic Ratio (TR) (P. aeruginosa 1051575; IC50 (CHO)/MIC, P. aeruginosa): > 10; IC50 CHO [1]: 85 µg/mL (≈ 141 µM)
CC(C)OC(=O)CCC(C)C1CCC2C3C(O)CC4CC(NCCCNCCCCN)CCC4(C)C3CCC12C (centres unmarked) [Claramine C18] | 7 (≈ 12.5 µM) | – | 95 (≈ 169 µM) | 7 (≈ 12.5 µM) | 4 (≈ 7.12 µM) | – | 14 (≈ 24.9 µM) | – | – | 14 (≈ 24.9 µM) | MIC E. faecalis 29212 (E. faecalis ATCC29212): 7 µg/mL (≈ 12.5 µM); MIC E. coli 25922 (E. coli ATCC 25922): 14 µg/mL (≈ 24.9 µM); MIC P. aeruginosa 27853 (P. aeruginosa ATCC 27853): 14 µg/mL (≈ 24.9 µM)
CC(C)OC(=O)CCC(C)C1CCC2C3C(O)CC4CC(NCCCNCCCN)CCC4(C)C3CCC12C (centres unmarked) [Claramine C19] | – | – | – | 7 (≈ 12.8 µM) | 2 (≈ 3.65 µM) | 4 (≈ 7.3 µM) | 14 (≈ 25.6 µM) | 14 (≈ 25.6 µM) | 28 (≈ 51.1 µM) | 14 (≈ 25.6 µM) | MIC S. aureus 340 (S. aureus 340): 2 µg/mL (≈ 3.65 µM); Therapeutic Ratio (TR) (S. intermedius 1051997): 65–114
CCOC(=O)CCC(C)C1CCC2C3C(O)CC4CC(NCCCNCCCCNCCCN)CCC4(C)C3CCC12C (centres unmarked) [Claramine C21] | 4 (≈ 6.61 µM) | 15 (≈ 24.8 µM) | 45 (≈ 74.4 µM) | 4 (≈ 6.61 µM) | 4 (≈ 6.61 µM) | 2 (≈ 3.31 µM) | 30 (≈ 49.6 µM) | 15 (≈ 24.8 µM) | 15 (≈ 24.8 µM) | – | –
CC(C)OC(=O)CCC(C)C1CCC2C3C(O)CC4CC(NCCCN5CCN(CCCN)CC5)CCC4(C)C3CCC12C (centres unmarked) [Claramine C24] | – | – | – | 8 (≈ 13 µM) | 4 (≈ 6.48 µM) | 15 (≈ 24.3 µM) | 30 (≈ 48.6 µM) | 15 (≈ 24.3 µM) | 30 (≈ 48.6 µM) | 30 (≈ 48.6 µM) | MIC S. aureus 340 (S. aureus 340): 8 µg/mL (≈ 13 µM)
CC(C)OC(=O)CCC(C)C1CCC2C3C(O)CC4CC(NCCN(CCN)CCN)CCC4(C)C3CCC12C (centres unmarked) [Claramine C25] | 14 (≈ 24.9 µM) | 28 (≈ 49.7 µM) | 141 (≈ 250 µM) | – | – | – | – | – | – | – | –
CC(C)OC(=O)CCC(C)C1CCC2C3C(O)CC4CC(NCCCNCCCCN)CCC4(C)C3CCC12C (centres unmarked) [Claramine C27] | – | – | – | – | – | – | – | – | – | 56 (≈ 99.7 µM) | MIC S. aureus 340 (S. aureus 340): 7 µg/mL (≈ 12.5 µM); MIC S. aureus 25923 (S. aureus ATCC 25923; 24 h): 7 µg/mL (≈ 12.5 µM); MIC S. intermedius 1051997 (S. intermedius 1051997; 24 h): 7 µg/mL (≈ 12.5 µM); MIC E. faecalis 29212 (E. faecalis ATCC29212): 28 µg/mL (≈ 49.8 µM); MIC E. coli 1956 (E. coli 1956): 28 µg/mL (≈ 49.8 µM); MIC E. coli 25922 (E. coli ATCC 25922): 56 µg/mL (≈ 99.7 µM); MIC P. aeruginosa 27853 (P. aeruginosa ATCC 27853): 56 µg/mL (≈ 99.7 µM); IC50 CHO [1]: 100 µg/mL (≈ 178 µM)
CC(C)OC(=O)CCC(C)C1CCC2C3CCC4CC(NCCCNCCCN)CCC4(C)C3CCC12C (centres unmarked) [Claramine E04] | 3 (≈ 5.64 µM) | 3 (≈ 5.64 µM) | 13 (≈ 24.4 µM) | – | – | – | – | – | – | – | –
CC[C@H]1OC(=O)[C@H](C)[C@@H](O[C@H]2C[C@@](C)(OC)[C@@H](O)[C@H](C)O2)[C@H](C)[C@@H](O[C@@H]2O[C@H](C)C[C@H](N(C)C)[C@H]2O)[C@](C)(O)C[C@@H](C)C(=O)[C@H](C)[C@@H](O)[C@]1(C)O [Ery, Erythromycine, reference compound] | 1 (≈ 1.36 µM) | – | – | 1 (≈ 1.36 µM) | 1 (≈ 1.36 µM) | 1 (≈ 1.36 µM) | – | – | – | – | –
Colistine [reference compound] | – | – | – | – | – | – | – | – | – | 0.5 | MIC E. coli 1956 (E. coli 1956): 0.5 µg/mL; MIC E. coli 25922 (E. coli ATCC 25922): 0.5 µg/mL; MIC P. aeruginosa 27853 (P. aeruginosa ATCC 27853): 0.5 µg/mL
